According to PMC12810351, “Structure-effect relationship of phenolic compounds on α-amylase inhibition studied by isothermal titration calorimetry” (Current Research in Food Science, 2025):
Like-named read-outs stand apart in the source and are kept apart here.

Key:
[1] = target: T1, porcine pancreatic α-amylase (Sus scrofa, UniProt P00690); experiment: starch hydrolysis by α-amylase monitored by isothermal titration calorimetry (ITC); type: biochemical; details: for inhibition mechanism suggested by Kic/Kiu ratios: polyphenol standards
T1 sequence (P00690 16-511): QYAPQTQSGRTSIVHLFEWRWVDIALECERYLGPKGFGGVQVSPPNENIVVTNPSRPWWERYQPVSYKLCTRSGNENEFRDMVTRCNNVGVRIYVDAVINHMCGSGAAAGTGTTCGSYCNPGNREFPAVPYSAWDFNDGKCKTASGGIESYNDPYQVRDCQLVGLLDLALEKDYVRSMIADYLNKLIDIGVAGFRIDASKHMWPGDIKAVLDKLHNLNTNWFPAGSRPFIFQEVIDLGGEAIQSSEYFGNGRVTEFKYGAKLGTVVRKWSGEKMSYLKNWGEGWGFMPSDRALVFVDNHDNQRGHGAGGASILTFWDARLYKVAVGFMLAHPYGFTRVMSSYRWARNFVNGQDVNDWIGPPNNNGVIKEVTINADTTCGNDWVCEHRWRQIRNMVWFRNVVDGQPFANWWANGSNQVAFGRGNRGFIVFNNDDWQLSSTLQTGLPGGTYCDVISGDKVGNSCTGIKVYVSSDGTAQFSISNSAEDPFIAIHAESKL
Procedure: The amylase stock solution was diluted each day and stored during the day at 4 °C.
The experiments were conducted using an Affinity ITC LV instrument with a cell volume of 182 μL (TA Instruments, Eschborn, Germany). […] These controls were conducted to determine the optimal injection volume to achieve maximal velocity (vmax) (S11). […] Enzyme kinetic constants were determined at 310 K.
The heat released during starch conversion was continuously monitored, with calculations performed using Microsoft Excel® software. The enzymatic rate (v) is directly proportional to the measured thermal power (eq (1)).(1) v=dP/dt=1/Vcell·ΔRHapp·dQ/dt
The reaction enthalpy ( ΔRHapp ) is determined by integrating the heat peak over its entire duration, divided by the number of substrate molecules converted:(2) ΔRHapp=∫t=0∞dQ/dtdt/nS
(dQ/dt)max [%], ΔRHapp [%] und vmax [%] are calculated in relation to daily control.
The substrate concentration at time t ([S]t) is calculated according to eq (3).(3) [S]t=∫t∞dQ/dtdt/∫0∞dQ/dtdt·[S]t=0
Therefore, the thermogram contains all the required data for calculating inhibition constants. The maximal conversion rate vmax and the Michaelis-Menten constant Km are determined from control experiments conducted in the absence of an inhibitor. In the presence of an inhibitor [I] the apparent values of vmaxapp and Kmapp are obtained. Competitive inhibition (Kic, eq (5)) is due to the formation of an enzyme-inhibitor complex (EI), whereas uncompetitive inhibition (Kiu, eq (5)) occurs when an inhibitor binds to a […]:(5) Kic=vmaxapp/Kmapp·[I]/(vmax/Km)−(vmaxapp/Kmapp)Kiu=vmaxapp·[I]/vmax−vmaxapp
The IC50 value, a key pharmacological metric, is used to compare the potency of inhibitors. […] The conversion rate (v0) was calculated from the thermogram according to eq (1), and subsequently plotted against the […]

[2] = target: α-amylase; details: substrate starch, DNS UV/Vis, cited from earlier work; for Ki: read-out: Kic
[3] = target: α-amylase; set-up: method as in Narita and Inouye (2011); details: substrate G2-pNP, pNP UV/Vis, ref Narita and Inouye (2011), cited from earlier work
[4] = target: α-amylase; set-up: method as in Zheng et al. (2020); details: substrate starch, D-glucose assay UV/Vis, ref Zheng et al. (2020), cited from earlier work
[5] = target: α-amylase; set-up: method as in Kaeswurm et al. (2019); details: substrate GalG2CNP, CNP UV/Vis, ref Kaeswurm et al. (2019), cited from earlier work
[6] = target: α-amylase; set-up: key to Kic [μM] / Kiu [μM] / IC50 [μM]: “–” no inhibition; details: substrate starch, PAHBAH UV/Vis, cited from earlier work
[7] = 100 μM polyphenol, 26 nM α-amylase, starch, 310 K, relative to control without inhibitor, read-out: (dQ/dt)max [%]
[8] = 100 μM polyphenol, relative to control, read-out: vmax [%]
[9] = calculated based on the mass concentration
[10] = calculated based on the mass concentration, read-out: IC50 [g/L] (converted)
[11] = calculated based on the mass concentration, read-out: Kic [g/L] (converted)
[12] = calculated based on the mass concentration, read-out: Kiu [g/L] (converted)
[13] = competitive inhibition constant, substrate starch, ITC, 100 μM polyphenol (EGCG 25 μM), read-out: Kic
[14] = substrate starch, ITC, calculated by eq (6), substrate concentration of 1 M (IC50 equivalent to Kiu), read-out: IC50*
[15] = uncompetitive inhibition constant, substrate starch, ITC, 100 μM polyphenol (EGCG 25 μM), read-out: Kiu
[16] = ref Souza Schmidt Gonçalves et al. (2010)

Row | SMILES | remaining activity at 100 µM [1, 7] | remaining activity at 100 µM [1, 8] | α (Kic/Kiu) [1, 9] | IC50 [1, 10] | Ki [1, 11] | Ki [1, 12] | Ki [1, 13] | inhibition mechanism suggested by Kic/Kiu ratios [1] | inhibition type ([1]; substrate starch, ITC) | IC50 [1, 14] | Ki [1, 15] | also measured
1 | O=c1c(O[C@@H]2O[C@H](CO)[C@@H](O)[C@H](O)[C@H]2O)c(-c2ccc(O)c(O)c2)oc2cc(O)cc(O)c12 [Q-3-glc, quercetin-3-O-glucoside] | 72 ± 9% | 63 ± 4% | 0.65 ± 0.07 | 151 µM | 108 µM | 172 µM | 115 ± 16 µM | preferentially bind to the enzyme | mixed | 178 ± 28 µM | 179 ± 28 µM | Ki ([2]; ref Li et al. (2009)): 5.35 µM
2 | COc1cc(/C=C/C(=O)O)ccc1O [FA, ferulic acid] | 94 ± 12% | 95 ± 3% | 0.67 ± 0.30 |  | 1240 µM | 2370 µM | 1240 ± 235 µM |  | mixed | 2350 ± 1470 µM | 2360 ± 1480 µM | IC50 [3]: 5450 µM; Ki ([3]; read-out: Kic): 11200 µM; Ki ([3]; read-out: Kiu): 4870 µM; IC50 [4]: 3200 µM; Ki ([4]; read-out: Kic): 3400 µM; Ki ([4]; read-out: Kiu): 3630 µM; IC50 ([2]; ref Aleixandre et al. (2022)): > 5150 µM
3 | Oc1cc(O)c2c(c1)O[C@H](c1ccc(O)c(O)c1)[C@H](O)C2 [EC, (−)-epicatechin] | 82 ± 8% | 78 ± 4% | 0.74 ± 0.10 | 482 µM | 379 µM | 517 µM | 253 ± 47 µM | preferentially bind to the enzyme |  | 385 ± 82 µM | 385 ± 82 µM | 
4 | O=C(/C=C/c1ccc(O)c(O)c1)O[C@@H]1C[C@](O)(C(=O)O)C[C@@H](O)[C@H]1O [CA, Chlorogenic acid] |  | 72 ± 6% | 0.70 ± 0.03 | 198 µM | 198 µM | 282 µM | 195 ± 68 µM | preferentially bind to the enzyme | mixed | 278 ± 100 µM | 279 ± 100 µM | remaining activity at 100 µM ([1]; read-out: (dQ/dt)max [%]): 77 ± 5%; IC50 [3]: 400 µM; Ki ([3]; read-out: Kic): 1120 µM; Ki ([3]; read-out: Kiu): 270 µM; IC50 [2, 16]: 3.9 µM; IC50 [5]: 413 µM; Ki ([5]; read-out: Kic): 406 µM; Ki ([5]; read-out: Kiu): 413 µM
5 | Oc1cc(O)c2c(c1)O[C@H](c1ccc(O)c(O)c1)[C@@H](O)C2 [CAT, (+)-catechin] |  |  | 0.75 ± 0.40 |  |  |  |  |  |  |  |  | IC50 [1, 9]: 120 ± 50 µg/mL; Kic [1, 9]: 0.10 ± 0.06 g/L; Kiu [1, 9]: 0.14 ± 0.06 g/L
6 | Oc1cc(O)c2c(c1)O[C@H](c1ccc(O)c(O)c1)[C@H](O)[C@H]2c1c(O)cc(O)c2c1O[C@H](c1ccc(O)c(O)c1)[C@H](O)C2 [PC B2, procyanidin B2] | 56 ± 4% | 62 ± 4% | 0.94 ± 0.13 | 121 µM | 121 µM | 121 µM | 177 ± 39 µM |  |  | 173 ± 26 µM | 173 ± 26 µM | reversibility of inhibition (from ΔRHapp) ([1]; 100 μM polyphenol (EGCG 25 μM)): irreversible aggregation
7 | Oc1cc(O)c2c(c1)O[C@H](c1ccc(O)c(O)c1)[C@H](O)[C@H]2c1c(O)cc(O)c2c1O[C@H](c1ccc(O)c(O)c1)[C@@H](O)C2 [PC B1, procyanidin B1] | 66 ± 14% | 66 ± 9% | 0.71 ± 0.20 | 190 µM | 156 µM | 225 µM | 155 ± 79 µM |  |  | 219 ± 91 µM | 219 ± 91 µM | 
8 | Oc1cc(O)c2c(c1)O[C@H](c1ccc(O)c(O)c1)[C@H](O)[C@H]2c1c(O)cc(O)c2c1O[C@H](c1ccc(O)c(O)c1)[C@H](O)[C@H]2c1c(O)cc(O)c2c1O[C@H](c1ccc(O)c(O)c1)[C@H](O)C2 [PC C1, procyanidin C1] | 44 ± 4% | 50 ± 4% | 0.90 ± 0.12 | 104 µM | 92.3 µM | 104 µM | 94 ± 26 µM |  |  | 103 ± 16 µM | 103 ± 16 µM | reversibility of inhibition (from ΔRHapp) ([1]; 100 μM polyphenol (EGCG 25 μM)): irreversible aggregation
9 | OC[C@H]1O[C@@H](Oc2cc3c(O)cc(O)cc3[o+]c2-c2ccc(O)c(O)c2)[C@H](O)[C@@H](O)[C@@H]1O [CYD-3-glc, cyanidin-3-O-glucoside] | 74 ± 10% | 65 ± 4% | 0.71 ± 0.05 |  | 156 µM | 223 µM | 143 ± 30 µM | preferentially bind to the enzyme | mixed | 200 ± 34 µM | 201 ± 34 µM | IC50 ([2]; ref Akkarachiyasit et al., (2010)): 300 µM; IC50 ([2]; ref Sui et al. (2016)): 240 µM; Ki ([2]; ref Sui et al. (2016)): 140 µM; IC50 ([6]; ref Le et al. (2024)): 340 µM; Ki ([6]; ref Le et al. (2024), read-out: Kic): 390 µM; Ki ([6]; ref Le et al. (2024), read-out: Kiu): 210 µM
10 | C[C@@H]1O[C@@H](OC[C@H]2O[C@@H](Oc3c(-c4ccc(O)c(O)c4)oc4cc(O)cc(O)c4c3=O)[C@H](O)[C@@H](O)[C@@H]2O)[C@H](O)[C@H](O)[C@H]1O [rutin, quercetin-3-O-rutinoside] | 90 ± 6% | 92 ± 4% | 0.28 ± 0.12 | 770 µM | 360 µM | 1560 µM | 354 ± 55 µM | preferentially bind to the enzyme | mixed | 1540 ± 855 µM | 1560 ± 872 µM | Ki ([2]; ref Li et al. (2009)): 8.96 µM; IC50 [2, 16]: 1.2 µM
11 | O=C(CCc1ccc(O)cc1)c1c(O)cc(O)cc1O[C@@H]1O[C@H](CO)[C@@H](O)[C@H](O)[C@H]1O [PHL, phlorizin] | 83 ± 4% | 89 ± 7% | 0.76 ± 0.08 | 504 µM | 412 µM | 573 µM | 418 ± 127 µM |  | mixed | 572 ± 145 µM | 573 ± 145 µM | IC50 [5]: 391 µM; Ki ([5]; read-out: Kic): 151 µM; Ki ([5]; read-out: Kiu): 391 µM; IC50 [μM] ([6]; ref Li et al. (2019)): –; Kic [μM] ([6]; ref Li et al. (2019)): –; Kiu [μM] ([6]; ref Li et al. (2019)): –
